The results in this text go back to publication PMC5653977 (EMBO Molecular Medicine, 2017).

The test system of one assay is Limk1. Kind of assay: Western blot of phospho-Limk1 in prefrontal cortex of spironolactone-treated mice. Type of assay: in vivo, mouse. As to conditions: Nrg1-tg mice, 50 mg/kg s.c. daily for 21 days, prefrontal cortex lysates. As for the experimental part:
(§1) For the generation of lysates, the isolated tissue was immediately placed into cooled (4°C) sucrose buffer (320 mM sucrose, 10 mM Tris–HCl, 1 mM NaHCO3, 1 mM MgCl2, supplemented with 10 mM NaF, 1 mM […], 1 mM ZnCl2, 4.5 mM Na4P20_7 as phosphatase inhibitors, and the complete protease inhibitor cocktail (Roche)), homogenized using an ultra‐turrax (IKA GmbH, Staufen, Germany), sonicated (3 pulses for 10 s), and denatured for 10 min at 70°C in LDS sample buffer.
(§2) Each blot was replicated two times.
(§3) Treatment was continued throughout the behavioral analysis period. To avoid injection‐induced stress prior to behavioral testing, mice were injected in the afternoon, after the entire cohort has completed the behavioral paradigm.

Another assay deals with AKT. The assay can be described thus: Western blot of pAKT in prefrontal cortex of spironolactone-treated mice. Type of assay: in vivo, mouse. Conditions: Nrg1-tg and wt mice, 50 mg/kg s.c. daily for 21 days, prefrontal cortex lysates. On the procedure: as §1, §2, §3

On to `CC(=O)S[C@@H]1CC2=CC(=O)CC[C@]2(C)[C@H]2CC[C@@]3(C)[C@@H](CC[C@@]34CCC(=O)O4)[C@H]12` [Spironolactone], for which the phospho-Limk1 levels result in the assay with Limk1 is on record as “markedly upregulated”. In the assay on AKT, the “pAKT (downstream signaling)” value was “neither modulated by Nrg1 overexpression, nor by spironolactone treatment”.
